Measured values taken from ChEMBL document CHEMBL1201862, “PubChem BioAssay data set” (2004).
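Cells were grown in 96-well plates and exposed to each compound for 48 hours at five concentrations; endpoints were interpolated linearly between bracketing concentrations, or set to the highest concentration if not reached. GI50 marks 50% less growth.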 The source made the active and inactive calls. Rule as the data show it: active = GI50 up to about 1.1 µM and inactive = higher.

Experiments:
Test in all cases: NCI-60 cell line screen, 48 h
[1] = tested on: UACC-62
[2] = tested on: SF-268
[3] = tested on: CCRF-CEM
[4] = tested on: UO-31
[5] = tested on: SN12C
[6] = tested on: MOLT-4
[7] = tested on: RXF 393
[8] = tested on: 786-0
[9] = tested on: RPMI-8226
[10] = tested on: TK-10
[11] = tested on: NCI-H23
[12] = tested on: SK-MEL-28
[13] = tested on: SK-MEL-5
[14] = tested on: SNB-19
[15] = tested on: HCT-116
[16] = tested on: SK-OV-3
[17] = tested on: CAKI-1
[18] = tested on: SR

| SMILES | GI50 [1] | GI50 [2] | GI50 [3] | GI50 [4] | GI50 [5] | GI50 [6] | GI50 [7] | GI50 [8] | GI50 [9] | GI50 [10] | GI50 [11] | GI50 [12] | GI50 [13] | GI50 [14] | GI50 [15] | GI50 [16] | GI50 [17] | GI50 [18] |
| --- | --- | --- | --- | --- | --- | --- | --- | --- | --- | --- | --- | --- | --- | --- | --- | --- | --- | --- |
| CC(C)(C)CC(C)(C)c1cc2c(O)c(c1)Cc1cc(C(C)(C)CC(C)(C)C)cc(c1O)Cc1cc(C(C)(C)CC(C)(C)C)cc(c1O)Cc1cc(C(C)(C)CC(C)(C)C)cc(c1O)C2 | > 100 µM (inactive) | > 100 µM (inactive) | > 100 µM (inactive) | > 100 µM (inactive) | > 100 µM (inactive) | > 100 µM (inactive) | > 100 µM (inactive) | > 100 µM (inactive) | > 100 µM (inactive) | > 100 µM (inactive) | > 100 µM (inactive) | > 100 µM (inactive) | > 100 µM (inactive) | > 100 µM (inactive) | > 100 µM (inactive) | – | – | – |
| CC1(S)CC2C(CC1Sc1ccccc1)C2(C)C (configuration not stated) | – | > 100 µM (inactive) | > 100 µM (inactive) | > 100 µM (inactive) | > 100 µM (inactive) | > 100 µM (inactive) | – | > 100 µM (inactive) | > 100 µM (inactive) | > 100 µM (inactive) | > 100 µM (inactive) | > 100 µM (inactive) | 8.67 µM (inactive) | – | > 100 µM (inactive) | > 100 µM (inactive) | – | – |
| CC(=O)Nc1ccc(/C=c2\sc3nnc(/C=C/c4ccccc4)n3c2=O)cc1 | > 50 µM (inactive) | > 50 µM (inactive) | > 50 µM (inactive) | > 50 µM (inactive) | > 50 µM (inactive) | > 50 µM (inactive) | > 50 µM (inactive) | > 50 µM (inactive) | > 50 µM (inactive) | > 50 µM (inactive) | > 50 µM (inactive) | > 50 µM (inactive) | > 50 µM (inactive) | > 50 µM (inactive) | > 50 µM (inactive) | > 50 µM (inactive) | > 50 µM (inactive) | – |
| C/C(=N\NC(=S)N1CCC(C2CCN(C(=S)N/N=C(\C)c3ccccn3)CC2)CC1)c1ccccn1 | > 100 µM (inactive) | > 100 µM (inactive) | > 100 µM (inactive) | > 100 µM (inactive) | 86.3 µM (inactive) | – | 71.8 µM (inactive) | 45.4 µM (inactive) | > 100 µM (inactive) | 53.8 µM (inactive) | 59.7 µM (inactive) | > 100 µM (inactive) | 62.4 µM (inactive) | 74.1 µM (inactive) | 29.2 µM (inactive) | 38.4 µM (inactive) | 68.1 µM (inactive) | – |
| COc1ccc(C(=O)C(c2ccc(OC)cc2)C2(O)C(=O)Nc3ccccc32)cc1 (configuration not stated) | > 100 µM (inactive) | > 100 µM (inactive) | > 100 µM (inactive) | > 100 µM (inactive) | > 100 µM (inactive) | > 100 µM (inactive) | – | > 100 µM (inactive) | > 100 µM (inactive) | > 100 µM (inactive) | > 100 µM (inactive) | > 100 µM (inactive) | – | > 100 µM (inactive) | > 100 µM (inactive) | > 100 µM (inactive) | > 100 µM (inactive) | > 100 µM (inactive) |
| COC(=O)C1=C(C)N(NC(=O)c2ccccc2)C(C)(O)C12CCOC2=O (configuration not stated) | > 100 µM (inactive) | > 100 µM (inactive) | > 100 µM (inactive) | > 100 µM (inactive) | > 100 µM (inactive) | > 100 µM (inactive) | – | 0.195 µM (active) | > 100 µM (inactive) | > 100 µM (inactive) | > 100 µM (inactive) | > 100 µM (inactive) | – | > 100 µM (inactive) | > 100 µM (inactive) | > 100 µM (inactive) | > 100 µM (inactive) | – |
| NC(=O)NCc1c(C(N)=O)ncn1Cc1ccccc1 | > 100 µM (inactive) | – | > 100 µM (inactive) | – | > 100 µM (inactive) | > 100 µM (inactive) | > 100 µM (inactive) | > 100 µM (inactive) | > 100 µM (inactive) | > 100 µM (inactive) | > 100 µM (inactive) | > 100 µM (inactive) | > 100 µM (inactive) | > 100 µM (inactive) | > 100 µM (inactive) | > 100 µM (inactive) | > 100 µM (inactive) | – |
